Results from EP4748837A1, “AROMATIC AMIDE DERIVATIVE, AND PREPARATION METHOD THEREFOR AND USE THEREOF” (Zhejiang Hisun Pharmaceutical Co., Ltd., priority 2023, dated 2025).
pIC50: −log10 of the molar value.

How the values were obtained:
OVCAR-3 cells = assay: Inhibition of OVCAR-3 cell proliferation (CellTiter-Glo cell viability); assay type: cell-based; details: Homo sapiens; OVCAR-3 cells (TP53 R248Q mutation), 72 hours culture with compound; read-out: IC50
Outline: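 OVCAR-3 cells (TP53 R248Q) in RPMI 1640 with 10% FBS were seeded at 1000 cells/well, grown overnight, then exposed to compound (final 1000 nM–0.015 nM) for 72 h at 37°C, 5% CO2. Viability was read by CellTiter-Glo luminescence. IC50 came from nonlinear regression of inhibition relative to 0.3% DMSO control.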

HT-29 cells = assay: Inhibition of HT-29 cell proliferation (CellTiter-Glo cell viability); assay type: cell-based; details: Homo sapiens; HT-29 cells (TP53 R273H mutation), 120 hours culture with compound; read-out: IC50
Outline: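 HT-29 cells (TP53 R273H) in McCOY's 5A with 10% FBS, seeded 1000 cells/well overnight, then exposed to compound at 1000 nM–0.015 nM final for 120 hours at 37°C. Viability by CellTiter-Glo luminescence versus 0.3% DMSO control; IC50 by nonlinear regression of log concentration–inhibition.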

[1] = Pharmacokinetic testing in mice after intragastric administration; assay type: in vivo; details: male, mouse, ICR mice, oral administration 10 mg/kg, plasma
Method: ICR mice were taken as test animals, and intragastrically administered with a control compound AMG650 and compounds 47 and 53 of the present invention, and then drug concentrations in plasma at different moments were determined by an LC/MS/MS method, so as to study pharmacokinetic characteristics of the compounds of the present invention in the mice.
Control compound AMG650, and Compounds 47 and 53.
ICR mice, male, 20-22 g, purchased from Vital River Laboratory Animal Technology Co., Ltd.
A proper amount of to-be-tested compound was weighed, proper amounts of DMA, 30% HS-15 and Saline were added in sequence, and the mixture was well mixed by ultrasonic vortex to prepare 1 mg/mL drug preparations respectively, wherein […]: 30% HS-15: Saline=5: 5: 90 (v: v: v).
ICR mice in each to-be-tested compound injection group (9 mice in each group) were fasted overnight and then intragastrically administered with the compound (PO, an administration dosage of the compound was 10 mg/kg and an administration volume of the compound was 10 mL/kg), and were fed 4 hours after administration.
0.25 hours, 0.5 hours, 1 hour, 2 hours, 4 hours, 6 hours, 8 hours and 24 hours before and after administration, about […] of blood was collected through an orbit, and a complete blood sample was placed in an EDTA-K2-containing anticoagulation tube. The collected blood samples were placed on ice, and plasma was centrifugally separated (centrifugation conditions: 1500 g, 10 minutes). The collected plasma was stored at -40°C - -20°C before analysis.
A content of the to-be-tested compound in the plasma of the mice after intragastric administration was determined by LC-MS/MS.

[2] = system: OVCAR-3 human ovarian adenocarcinoma tumor mass; assay: Pharmacodynamic testing in subcutaneous OVCAR-3 xenograft model; assay type: in vivo, BALB/c nude mice; details: 35 days after administration, 8 mg/kg po QD, BALB/c nude mice
Method: Anti-tumor effects and Safeties of the Compounds 47 and 53 of the present invention in a BALB/c nude mouse animal model subjected to subcutaneous xenotransplantation of OVCAR-3 human ovarian adenocarcinoma tumor mass were evaluated.
BALB/c; nude mice, female, 6-7 weeks old, purchased from Jiangsu Gempharmatech Biotechnology Co., Ltd.
Mice in a solvent control group were given DMA: CrEL: 5%GS=10: 10: 80 (v: v: v). AMG650: a proper amount of AMG-650 was weigned, proper amounts of DMA, CrEL and 5% GS were added in sequence, and the mixture was well mixed by ultrasonic vortex to prepare 0.8 mg/mL drug preparations respectively, wherein DMA: CrEL : 5% GS=10: 10: 80 (v: v: v).
Compound 47: a proper amount of Compound 47 was added with proper amounts of DMA, CrEL and 5% GS in sequence, and evenly mixed by ultrasonic vortex to prepare 0.8 mg/mL drug preparations respectively, wherein DMA, CrEL and 5% GS=10: 10: 80 (v: v: v).
Compound 53: a proper amount of Compound 53 was weighed, proper amounts of DMA, CrEL and 5% GS were added in sequence, and the mixture was well mixed by ultrasonic vortex to prepare 0.8 mg/mL drug preparations respectively, wherein DMA: CrEL : 5% GS=10: 10: 80 (v: v: v).
An appropriate OVCAR-3 tumor-bearing animal was selected, and a 1 mm×1 mm×1 mm OVCAR-3 tumor mass was acquired aseptically and placed into normal saline for later use, which was used for subcutaneous tumor inoculation in a right side of back of the BALB/c nude mice.
About 1 mm×1 mm×1 mm OVCAR-3 tumor mass was subcutaneously inoculated in the right side of back of the female BALB/c nude mice. When an average tumor volume reached about 100-250 mm^3, the mice were randomly grouped based on tumor size, with 6 mice in each group.
Animals in each group were given the test compound once per day according to an animal weight at a fixed time every day by oral administration (po), the animals started to be administered with the test compound for the first time on the day of grouping for 35 consecutive days, and the animal weight was recorded every day.
The 1st group (G1) was a solvent control group; and
The 2nd-4th groups […] were orally administered with AMG-650, Compound 47 and Compound 53 at an administration dosage of 8 mg/kg once per day (QD).

recombinant human KIF18A = molecular target: T1, recombinant human KIF18A (Homo sapiens, UniProt Q8NI77); assay: Inhibition of KIF18A enzyme activity (ADP-Glo assay); assay type: biochemical; details: recombinant human KIF18A 100 nM, ATP 60 µM, tubulin, paclitaxel; read-out: IC50
T1 construct: purchased GenScript
T1 sequence (Q8NI77 whole entry): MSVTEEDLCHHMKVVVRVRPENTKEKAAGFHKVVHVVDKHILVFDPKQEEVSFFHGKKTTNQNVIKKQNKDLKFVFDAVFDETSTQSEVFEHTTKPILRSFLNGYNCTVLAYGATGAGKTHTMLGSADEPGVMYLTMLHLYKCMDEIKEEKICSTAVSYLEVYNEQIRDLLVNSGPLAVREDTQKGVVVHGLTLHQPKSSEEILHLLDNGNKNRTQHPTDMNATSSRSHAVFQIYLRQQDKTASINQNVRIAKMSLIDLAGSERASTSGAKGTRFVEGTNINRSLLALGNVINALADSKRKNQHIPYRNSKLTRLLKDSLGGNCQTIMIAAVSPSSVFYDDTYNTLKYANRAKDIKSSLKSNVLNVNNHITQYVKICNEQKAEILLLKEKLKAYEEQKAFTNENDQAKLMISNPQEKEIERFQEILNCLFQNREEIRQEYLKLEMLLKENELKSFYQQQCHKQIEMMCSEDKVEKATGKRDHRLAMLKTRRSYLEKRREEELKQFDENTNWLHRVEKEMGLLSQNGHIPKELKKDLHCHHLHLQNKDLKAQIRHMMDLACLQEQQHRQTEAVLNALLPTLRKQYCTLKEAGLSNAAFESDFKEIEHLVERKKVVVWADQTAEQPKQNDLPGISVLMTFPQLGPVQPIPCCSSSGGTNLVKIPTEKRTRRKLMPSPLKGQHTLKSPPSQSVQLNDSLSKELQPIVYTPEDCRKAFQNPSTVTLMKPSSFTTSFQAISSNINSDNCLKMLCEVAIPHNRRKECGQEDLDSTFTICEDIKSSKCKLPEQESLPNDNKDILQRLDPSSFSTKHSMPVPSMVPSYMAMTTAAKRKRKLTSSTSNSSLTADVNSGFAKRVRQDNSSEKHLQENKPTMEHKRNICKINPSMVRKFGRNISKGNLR
T1 sequence (P68363 whole entry partner): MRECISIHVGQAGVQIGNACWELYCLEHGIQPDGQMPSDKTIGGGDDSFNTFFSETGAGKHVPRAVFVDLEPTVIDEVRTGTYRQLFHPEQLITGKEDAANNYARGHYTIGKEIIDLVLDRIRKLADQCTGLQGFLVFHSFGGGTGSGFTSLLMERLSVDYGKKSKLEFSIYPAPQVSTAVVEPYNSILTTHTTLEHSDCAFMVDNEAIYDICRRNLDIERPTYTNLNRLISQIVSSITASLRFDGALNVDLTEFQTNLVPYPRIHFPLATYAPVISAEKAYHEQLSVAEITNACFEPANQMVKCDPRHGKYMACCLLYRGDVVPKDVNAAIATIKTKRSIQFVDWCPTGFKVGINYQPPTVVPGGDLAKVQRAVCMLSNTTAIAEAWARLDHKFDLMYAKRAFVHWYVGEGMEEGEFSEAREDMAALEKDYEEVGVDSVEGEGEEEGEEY
T1 sequence (Q9BVA1 whole entry partner): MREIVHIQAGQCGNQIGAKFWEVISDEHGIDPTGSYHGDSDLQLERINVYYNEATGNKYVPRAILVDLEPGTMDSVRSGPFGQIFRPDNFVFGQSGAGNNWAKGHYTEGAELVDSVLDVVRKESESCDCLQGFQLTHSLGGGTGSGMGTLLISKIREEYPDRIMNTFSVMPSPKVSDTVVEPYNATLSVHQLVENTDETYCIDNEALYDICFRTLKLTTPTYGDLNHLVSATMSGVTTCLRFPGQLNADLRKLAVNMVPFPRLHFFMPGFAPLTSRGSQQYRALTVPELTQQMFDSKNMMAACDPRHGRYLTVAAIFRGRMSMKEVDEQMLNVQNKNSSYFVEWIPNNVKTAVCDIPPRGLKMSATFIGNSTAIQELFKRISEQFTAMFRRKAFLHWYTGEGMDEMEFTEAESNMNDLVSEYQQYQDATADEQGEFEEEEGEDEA
Method: Inhibition degrees of the compounds of the present invention on recombinant human KIF18A enzyme activity in vitro were determined by the following method. An ADP-Glo™ Kinase Assay kit (article number V9102) from Promega Company was used in this method. Detailed experimental operation referred to the instruction of the kit.
An experimental process was briefly described as follows: a test compound was dissolved in DMSO first to prepare a stock solution, then the stock solution was gradiently diluted with a reaction buffer A ([…], 0.01% Pluronic F-68), and a final concentration of the test compound in the reaction system was in a range of 10000 nM-0.15 nM; and a KIF18A protein and ATP working solution was prepared by using a reaction buffer B (15 mM Tris, pH 7.5, 10 mM MgCl2, 0.01% Pluronic F-68, 37.5 µg/ml tubulin, 1.25 µM paclitaxel). The reaction was carried out in a 384-well microplate. The test compound and the recombinant human KIF18A protein (final concentration of 100 nM, entrusted to GenScript for expression) were added into the wells and incubated at room temperature for 20 minutes, and subsequently, an ATP solution (component V915A from the ADP-Glo™ Kinase Assay kit, final concentration of 60 µM) was added to the reaction solution and the system was incubated at room temperature for 20 minutes. Subsequently, 5 µL of ADP-Glo Reagent was added to the reaction systemand the system was incubated at room temperature for 50 minutes. Then, 10 µL of Kinase Detection Reagent was added to the reaction system and the system was incubated at room temperature for 30 minutes. After the incubation was ended, a chemiluminiscence intensity value of each well was determined by a microplate reader in a Luminescence mode.

SMILES | pIC50 (OVCAR-3 cells) | pIC50 (HT-29 cells) | AUC(0-inf) ([1]; read-out: Area under the curve AUC0-∞) [ng·h/mL] | half-life ([1]; read-out: Half-life period T1/2 (converted)) [h] | Cmax ([1]; read-out: Plasma concentration Cmax) [ng/mL] | TGI% [2] [%] | Tumor volume (x±S) ([2]; mean value ± standard error, in mm³ (unit assumed)) | pIC50 (recombinant human KIF18A)
Cc1cc(NC(=O)c2ccc(NS(=O)(=O)CCO)cc2N2CCC3(CC2)CC3)nc(N2CCC(F)(F)CC2)n1 [AMG 650, reference compound] | 7.19 | 7.21 | 52500 | 9.64 | 3050 | 68.1 | 313±76 | –
CCS(=O)(=O)Nc1ccc(C(=O)Nc2ccc(-c3nnco3)c(N3CC(F)(F)C3)c2)c(N2CCC3(CC2)CC3)c1 [Example 49, N-(3-(3,3-difluoroazetidin-1-y 1)-4-(1,3,4-oxadiazol-2-yl)phenyl)-4-(ethylsulfonamido)-2-(6-azaspiro[2.5]octan-6-yl)benzamide] | 7.90 | 8.02 | – | – | – | – | – | 7.15
[2H]C([2H])([2H])Oc1ccc(NC(=O)c2ccc(NS(=O)(=O)CCO)cc2N2CCC3(CC2)CC3)cc1N1CCC(F)(F)CC1 [Example 58, N-(3-(4,4-difluoropiperidin-1-yl)-4-(methoxy-d3)phenyl)-4-( (2-hydroxyethyl)sulfonamido) -2-(6-azaspiro[2.5]octan-6-yl) benzamide] | 8.66 | 8.82 | – | – | – | – | – | 7.04
